Laboratory results from BindingDB's records for patent US20240139197 (The Wistar Institute of Anatomy and Biology, 2024).

What was measured:
Assay in all cases: Biochemical Assay
[1] = molecular target: Lysine-specific demethylase 5A (Homo sapiens, UniProt P29375)
[2] = molecular target: T1, Lysine-specific demethylase 4C (Homo sapiens, UniProt Q9H3R0)
T1 sequence (Q9H3R0 whole entry): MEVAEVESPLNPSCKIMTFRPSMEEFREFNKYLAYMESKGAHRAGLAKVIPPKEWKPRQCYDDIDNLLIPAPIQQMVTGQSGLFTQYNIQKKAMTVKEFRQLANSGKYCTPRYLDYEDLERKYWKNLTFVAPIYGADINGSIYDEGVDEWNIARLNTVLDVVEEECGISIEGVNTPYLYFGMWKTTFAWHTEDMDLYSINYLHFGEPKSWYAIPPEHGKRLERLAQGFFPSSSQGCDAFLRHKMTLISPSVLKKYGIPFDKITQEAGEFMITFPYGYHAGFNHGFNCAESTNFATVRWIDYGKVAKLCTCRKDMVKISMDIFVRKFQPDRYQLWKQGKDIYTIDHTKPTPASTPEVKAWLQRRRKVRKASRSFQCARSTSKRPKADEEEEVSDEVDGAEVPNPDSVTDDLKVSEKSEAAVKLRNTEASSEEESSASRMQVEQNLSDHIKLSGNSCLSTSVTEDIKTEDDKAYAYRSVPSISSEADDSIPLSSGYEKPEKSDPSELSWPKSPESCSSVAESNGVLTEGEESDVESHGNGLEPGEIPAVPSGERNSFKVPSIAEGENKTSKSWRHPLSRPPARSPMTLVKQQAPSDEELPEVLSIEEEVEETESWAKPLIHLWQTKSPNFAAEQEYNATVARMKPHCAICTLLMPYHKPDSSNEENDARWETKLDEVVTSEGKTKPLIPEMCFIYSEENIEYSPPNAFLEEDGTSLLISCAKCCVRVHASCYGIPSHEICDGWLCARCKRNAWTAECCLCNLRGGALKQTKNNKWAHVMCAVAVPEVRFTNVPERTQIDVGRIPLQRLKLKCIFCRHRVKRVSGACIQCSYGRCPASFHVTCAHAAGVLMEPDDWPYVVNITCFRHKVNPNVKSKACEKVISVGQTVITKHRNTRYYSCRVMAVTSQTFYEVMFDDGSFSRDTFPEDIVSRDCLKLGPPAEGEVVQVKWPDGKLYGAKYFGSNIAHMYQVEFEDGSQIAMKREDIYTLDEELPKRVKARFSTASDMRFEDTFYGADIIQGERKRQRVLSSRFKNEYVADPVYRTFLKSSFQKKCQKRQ

[3] = molecular target: Lysine-specific demethylase 5B (Homo sapiens, UniProt Q9UGL1)
Sequence of Lysine-specific demethylase 5B (Q9UGL1 whole entry): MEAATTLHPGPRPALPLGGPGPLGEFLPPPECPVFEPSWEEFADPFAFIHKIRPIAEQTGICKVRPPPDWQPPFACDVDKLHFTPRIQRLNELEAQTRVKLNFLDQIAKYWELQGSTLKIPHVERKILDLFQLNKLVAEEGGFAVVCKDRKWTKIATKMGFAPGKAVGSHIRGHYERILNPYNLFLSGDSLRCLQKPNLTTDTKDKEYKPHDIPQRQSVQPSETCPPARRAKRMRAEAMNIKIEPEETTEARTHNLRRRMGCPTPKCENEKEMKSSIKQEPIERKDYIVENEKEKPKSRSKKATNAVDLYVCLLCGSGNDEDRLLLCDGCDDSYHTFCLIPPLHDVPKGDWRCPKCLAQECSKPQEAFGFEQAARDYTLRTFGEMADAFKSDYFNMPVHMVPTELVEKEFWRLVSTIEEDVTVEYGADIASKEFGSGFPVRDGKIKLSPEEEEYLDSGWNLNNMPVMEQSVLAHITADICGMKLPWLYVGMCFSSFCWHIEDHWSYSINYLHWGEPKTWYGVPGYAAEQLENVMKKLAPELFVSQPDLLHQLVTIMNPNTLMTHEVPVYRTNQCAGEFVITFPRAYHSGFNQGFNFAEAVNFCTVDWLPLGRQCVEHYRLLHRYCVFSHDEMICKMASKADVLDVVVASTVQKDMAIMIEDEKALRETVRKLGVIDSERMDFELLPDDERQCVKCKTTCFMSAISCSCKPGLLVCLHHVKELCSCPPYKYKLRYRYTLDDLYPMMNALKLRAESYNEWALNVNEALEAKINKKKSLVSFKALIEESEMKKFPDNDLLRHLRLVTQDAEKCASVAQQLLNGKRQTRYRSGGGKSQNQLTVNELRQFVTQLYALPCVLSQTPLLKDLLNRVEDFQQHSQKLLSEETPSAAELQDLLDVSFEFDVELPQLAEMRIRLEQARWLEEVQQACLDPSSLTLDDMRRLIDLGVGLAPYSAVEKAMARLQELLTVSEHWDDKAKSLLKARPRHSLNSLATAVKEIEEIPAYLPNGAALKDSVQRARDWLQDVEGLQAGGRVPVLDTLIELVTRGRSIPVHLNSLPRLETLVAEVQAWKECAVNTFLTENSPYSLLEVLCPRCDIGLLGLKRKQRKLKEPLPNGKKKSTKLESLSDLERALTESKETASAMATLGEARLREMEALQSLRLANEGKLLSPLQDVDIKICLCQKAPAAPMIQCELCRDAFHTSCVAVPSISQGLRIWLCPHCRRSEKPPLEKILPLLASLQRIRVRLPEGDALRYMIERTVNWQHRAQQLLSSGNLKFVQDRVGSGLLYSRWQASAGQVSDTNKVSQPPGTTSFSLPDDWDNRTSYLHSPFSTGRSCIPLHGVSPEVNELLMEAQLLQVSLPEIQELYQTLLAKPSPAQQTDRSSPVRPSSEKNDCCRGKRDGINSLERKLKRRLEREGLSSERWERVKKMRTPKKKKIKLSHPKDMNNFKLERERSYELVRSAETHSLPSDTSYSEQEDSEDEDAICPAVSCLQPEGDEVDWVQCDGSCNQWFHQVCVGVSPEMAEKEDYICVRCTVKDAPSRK

Sequence of Lysine-specific demethylase 5A (P29375 whole entry): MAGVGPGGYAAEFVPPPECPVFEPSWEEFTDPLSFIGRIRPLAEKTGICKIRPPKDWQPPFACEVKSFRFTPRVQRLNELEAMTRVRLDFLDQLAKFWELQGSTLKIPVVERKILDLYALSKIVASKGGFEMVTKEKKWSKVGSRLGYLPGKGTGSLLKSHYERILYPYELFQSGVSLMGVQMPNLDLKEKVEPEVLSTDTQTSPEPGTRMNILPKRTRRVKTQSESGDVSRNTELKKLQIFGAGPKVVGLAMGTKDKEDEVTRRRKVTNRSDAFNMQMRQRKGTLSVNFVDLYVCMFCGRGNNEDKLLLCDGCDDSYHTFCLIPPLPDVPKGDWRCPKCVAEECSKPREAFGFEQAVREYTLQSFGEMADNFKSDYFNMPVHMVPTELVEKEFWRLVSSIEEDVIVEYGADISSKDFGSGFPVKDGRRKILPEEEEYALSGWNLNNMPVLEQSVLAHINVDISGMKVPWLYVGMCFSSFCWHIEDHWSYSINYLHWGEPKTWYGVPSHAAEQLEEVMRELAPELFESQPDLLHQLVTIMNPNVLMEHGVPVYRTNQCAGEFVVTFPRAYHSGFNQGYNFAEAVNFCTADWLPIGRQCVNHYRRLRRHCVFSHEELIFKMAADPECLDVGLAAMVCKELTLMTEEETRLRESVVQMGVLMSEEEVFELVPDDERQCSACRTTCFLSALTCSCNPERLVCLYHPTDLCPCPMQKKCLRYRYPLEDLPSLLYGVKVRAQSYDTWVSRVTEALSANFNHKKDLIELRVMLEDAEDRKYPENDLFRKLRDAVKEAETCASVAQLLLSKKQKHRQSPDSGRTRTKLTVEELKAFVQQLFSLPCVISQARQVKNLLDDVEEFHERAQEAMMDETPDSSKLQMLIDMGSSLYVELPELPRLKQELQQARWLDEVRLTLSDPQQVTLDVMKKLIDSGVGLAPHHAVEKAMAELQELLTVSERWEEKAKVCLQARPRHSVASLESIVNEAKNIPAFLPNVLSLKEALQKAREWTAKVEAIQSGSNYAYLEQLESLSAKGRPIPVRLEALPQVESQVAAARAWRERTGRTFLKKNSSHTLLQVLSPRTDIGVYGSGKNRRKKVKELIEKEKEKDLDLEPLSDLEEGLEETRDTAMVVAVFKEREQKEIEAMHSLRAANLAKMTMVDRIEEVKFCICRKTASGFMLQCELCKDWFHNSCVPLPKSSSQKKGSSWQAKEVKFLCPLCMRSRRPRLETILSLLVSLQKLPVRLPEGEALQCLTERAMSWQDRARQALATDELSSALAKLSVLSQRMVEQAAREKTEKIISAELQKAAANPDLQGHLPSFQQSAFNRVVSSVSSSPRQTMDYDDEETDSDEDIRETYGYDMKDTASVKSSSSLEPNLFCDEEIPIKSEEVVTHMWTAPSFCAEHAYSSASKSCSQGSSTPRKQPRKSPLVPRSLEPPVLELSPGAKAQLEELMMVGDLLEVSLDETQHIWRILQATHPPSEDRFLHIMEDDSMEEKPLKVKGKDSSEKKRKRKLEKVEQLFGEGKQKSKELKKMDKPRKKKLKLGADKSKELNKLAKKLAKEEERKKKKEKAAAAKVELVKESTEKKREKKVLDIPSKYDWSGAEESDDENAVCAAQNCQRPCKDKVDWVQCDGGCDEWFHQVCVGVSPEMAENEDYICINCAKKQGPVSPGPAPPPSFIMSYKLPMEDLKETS

SMILES	IC50 [1] [nM]	IC50 [2] [nM]	IC50 [3] [nM]
CC(C)c1c[nH]c2c(C#N)cnn2c1=O [US20240139197, Compound 7]	170		
Bc1cc(Cl)ccc1COc1ccnn1-c1cc(C(=O)O)ccn1 [US20240139197, Compound 21]	14	54	4
COc1cc(Cl)ccc1COc1ccnn1-c1cc(C(=O)O)ccn1 [US20240139197, Compound 34]			3
CCOc1cc(Cl)ccc1COc1ccnn1-c1cc(C(=O)O)ccn1 [US20240139197, Compound 35]	18		
O=C(O)c1ccnc(-n2nccc2OCc2ccc(Cl)cc2OCC2CC2)c1 [US20240139197, Compound 36]	25		36
